This passage reports IC50 and selective inhibitory activity results from patent publication US12514851B2, “Use of 2,3,5-substituted thiophene compound for preventing, ameliorating, or treating ovarian cancer” (PHAROS IBIO CO., LTD, priority 2020, dated 2026).

Holding throughout (type): cell-based
Assay [1] has as its system CAOV3 ovarian cancer cell line. The assay is described as follows: Inhibitory activity against ovarian cancer cell lines, agents alone (Celltiter glo cell viability).
Procedure: (§5) In 100-mm culture dishes (SPL) at 37° C. under 5% CO2, the CAOV3 ovarian cancer cell line was cultured using DMEM (Dulbeco's Modified Eagle Medium), and the OVCAR3, SK-OV-3 and SW626 ovarian cancer cell lines were cultured using RPMI1640 medium. Thereafter, each cell line was diluted to 3,000 cells/80 μl using PBS (phosphate-buffered saline) (Biosesang).
(§6) After incubation, the cells were counted using a Celltiter glo assay kit (Promega), and cell viability was measured by expressing the cell count as a percentage relative to that of a control group not treated with PHI-101 or the anticancer agent.
In assay [2] the test system is OVCAR3 ovarian cancer cell line. The assay is described as above.
Procedure: as §5, §6
Assay [3] has as its system SW626 ovarian cancer cell line. The description is as above.
Procedure: as §5, §6
In assay [4] the test system is SK-OV-3 ovarian cancer cell line. The assay is described as above. The conditions noted are these: SK-OV3.
Procedure: as §5, §6
In assay [5] the test system is CAOV3 ovarian cancer cell line. Description: Synergistic effect of PHI-101 and olaparib (Celltiter glo viability, Combination Index by CalcuSyn). As to conditions: Homo sapiens, Caov-3, Table 7, combination index experiment, 72 hours. As for the experimental part: (§1) In order to establish the concentrations of PHI-101 and olaparib which are in an integer ratio in the combination index experiment, based on the IC50 value of olaparib relative to the relatively low IC50 value (1×) of PHI-101, the integer ratio between PHI-101 and olaparib was obtained as shown in Table 4 below.
(§2) Each prepared 10× solution was serially diluted at 1:2 in each of six E-tubes, each containing 150 μl of medium. Then, a PHI-101 96-well plate (FIG. 4) and an olaparib 96-well plate (FIG. 5) were prepared separately, and 30 μl of the serially diluted PHI-101 or olaparib was dispensed into each well of the corresponding plate. 30 μl of medium was dispensed into each well not containing the substance.
(§3) Then, each well was incubated at 37° C. under 5% CO2 for 72 hours, and each experiment was performed in triplicate.
(§4) Next, using the CalcuSyn software and based on the Combination Index (CI) shown in Table 8, the CI for each ovarian cancer cell line depending on the treatment concentrations of PHI-101 and olaparib was calculated, and whether there was synergism between the substances was evaluated.

The test system of assay [6] is OVCAR3 ovarian cancer cell line. The assay is described as above. The conditions noted are these: Homo sapiens, OVCAR-3, Table 7, combination index experiment, 72 hours. How it is done: as §1, §2, §3, §4
The subject of assay [7] is SK-OV3 ovarian cancer cell line. The description is as above. As to conditions: Homo sapiens, SK-OV-3, Table 7, combination index experiment, 72 hours. As for the experimental part:
as §1, §2, §3, §4

Assay [8] has as its system TP53-mutant ovarian cancer cell lines. The assay is described as follows: Selective inhibitory activity against TP53-mutant ovarian cancer cell lines. The conditions noted are these: TP53-mutant versus non-mutant ovarian cancer cell lines (Table 2). The text has this:
In order to evaluate the selective inhibitory activity of PHI-101, the characteristics of each cell line and the inhibitory activity of PHI-101 against ovarian cancer cell lines were investigated as shown in Table 2 below.

[9] abbreviates: Homo sapiens, Caov-3, agent alone, 72 hours.
The mark [10] stands for this setting: Homo sapiens, OVCAR-3, agent alone, 72 hours.
Setting [11] is: Homo sapiens, agent alone, 72 hours.
[12] abbreviates: Homo sapiens, SK-OV-3, agent alone, 72 hours.

For `N.N.[Cl][Pt][Cl]` [Cisplatin, cisplatin], the IC50 in assay [1] (agent alone, 72 hours) was determined as 3.5 µM; in assay [2] (agent alone, 72 hours) it was 4.4 µM; in assay [3] (agent alone, 72 hours) it was 8 µM; in assay [4] (agent alone, 72 hours), 12.3 µM.

Take `O=C(c1cc(Cc2n[nH]c(=O)c3ccccc23)ccc1F)N1CCN(C(=O)C2CC2)CC1` [Olaparib, olaparib]: the IC50 is 59.7 µM in assay [1] (setting [9]); 96.5 µM in assay [2] (setting [10]); 147 µM in assay [3] (setting [11]); 114 µM in assay [4] (setting [12]); 59.7 µM in assay [5]; 96.5 µM in assay [6]. Also, in assay [7], the IC50 is 114 µM.

Regarding `NC(=O)Nc1cc(C#Cc2cccc(F)c2)sc1C(=O)N[C@H]1CCCNC1` [PHI-101, (S)-5-((3-fluorophenyl)ethynyl)-N-(piperidin-3-yl)-3-ureido thiophene-2-carboxamide], in assay [8], the selective inhibitory activity result is “better inhibitory activity against the TP53-mutant ovarian cancer cell lines”. Also, the IC50 in assay [1] (Homo sapiens, Caov-3, Table 4, values used to establish treatment starting concentrations) came out at 0.523 µM; in assay [1] (setting [9]), 0.5 µM; in assay [2] (Homo sapiens, OVCAR-3, Table 4, values used to establish treatment starting concentrations), 2.76 µM; in assay [2] (setting [10]), 2.7 µM; in assay [3] (Homo sapiens, Table 4, values used to establish treatment starting concentrations) it was 3.64 µM; in assay [3] (setting [11]), 3.6 µM. For the same compound, the IC50 in assay [4] (Homo sapiens, SK-OV-3, Table 4, values used to establish treatment starting concentrations) is 5.6 µM; in assay [4] (setting [12]), 5.6 µM; in assay [5], 0.873 µM; in assay [6], 3.5 µM; in assay [7], 4.39 µM.

In the case of `CC(=O)O[C@H]1C(=O)[C@@]2(C)[C@H]([C@H](OC(=O)c3ccccc3)[C@]3(O)C[C@H](OC(=O)[C@H](O)[C@@H](NC(=O)c4ccccc4)c4ccccc4)C(C)=C1C3(C)C)[C@]1(OC(C)=O)CO[C@@H]1C[C@@H]2O` [Paclitaxel, paclitaxel], the IC50 in assay [1] (setting [9]) was found to be 3.6 µM; in assay [2] (setting [10]), 5.7 µM; in assay [3] (setting [11]), 29.8 µM; in assay [4] (setting [12]) it was 114 µM.

For the compound `COc1cccc(OCCCN)c1-c1cc(Nc2cnc(C#N)cn2)n[nH]1` [Prexasertib, prexasertib], inhibition in assay [2] (setting [10]) was half-maximal at 6.3 µM (IC50).

As for `CC[C@@]1(O)C(=O)OCc2c1cc1n(c2=O)Cc2cc3c(CN(C)C)c(O)ccc3nc2-1` [Topotecan, topotecan], the IC50 was found to be 3.9 µM in assay [1] (setting [9]), 8.3 µM in assay [2] (setting [10]), 14.4 µM in assay [3] (setting [11]) and 3.7 µM in assay [4] (setting [12]).
